This is an account of results in US10548896B2, “Treatment of relapsed and/or refractory solid tumors and non-Hodgkin's lymphomas” (CELGENE QUANTICEL RESEARCH, INC., priority 2016, dated 2020).

A short description of data set [1]: Hemodynamic and ECG parameters in anesthetized guinea pigs. Type of data set: in vivo, male Dunkin Hartley guinea pigs. From the text:
Animals were monitored throughout the experiment.

Data set [2] can be described thus: Predicted human pharmacokinetics (allometric scaling).
The nature of data set [3]: Pharmacokinetics after IV and oral dose, rats. Type of data set: in vivo, Sprague Dawley rats. The conditions noted are these: IV dosing, rats (greater than liver blood flow).
A short description of data set [4]: Excretion in bile duct cannulated rats. Type of data set: in vivo. The conditions noted are these: IV dosing, 24-hour period.
For data set [5], the system named is LU1480 SCLC patient derived xenograft. As to the kind of experiment: Efficacy in LU1480 HuPrime SCLC PDX model. Type of data set: in vivo, female BALB/c nude mice.
Data set [6] concerns ST18 and FREM2 gene expression in MS-1 tumors. As to the kind of experiment: In vivo xenograft dose-response of PD biomarker genes, MS-1 tumors. More on the design: species or system female NSG mice. The conditions noted are these: 1, 2.5, or 5 mg/kg PO BID x4.5, tumors 4 hours after last dose. The source says:
(§1) Female NSG mice bearing palpable hMCC MKL-1 and MS-1 tumors were randomized into four groups of three mice each. […] The fourth group was orally administered vehicle as a control on the BID schedule. Four hours after the last dosing, tumors were collected into RNAlater and stored frozen.
(§2) Total RNA was eluted in RNase-free water and analyzed by qRT-PCR.

The test system of data set [7] is recombinant human CYP enzymes. As to the kind of experiment: CYP reaction phenotyping with recombinant human CYP enzymes. Type of data set: in vitro ADME. From the text: The role of non-CYP enzymes in the metabolism of Compound A is yet to be ascertained.
For data set [8], the system named is LU2514 SCLC patient derived xenograft. As to the kind of experiment: Efficacy in LU2514 HuPrime SCLC PDX model. It counts as in vivo, female BALB/c nude mice. As for the experimental part: Tumor growth inhibition analysis was performed on Day 28 post treatment, the last day of dosing.
The target of data set [9] is CYP2C9 (Homo sapiens (Human), UniProt P11712). As to the kind of experiment: CYP inhibition in pooled human liver microsomes, CYP2C9. The conditions noted are these: up to 50 μM. It counts as in vitro ADME. (In general: Liver microsomes are vesicles of endoplasmic reticulum, rich in cytochrome P450 enzymes.)
Data set [10] deals with NCI-H1417 SCLC xenograft. The data set can be described thus: Efficacy in NCI-H1417 SCLC xenograft model. Type of data set: in vivo, female athymic nude mice.
Data set [11] can be described thus: Exploratory toxicity study in mice. It counts as in vivo, CD-1 mice. The conditions noted are these: for reduction in neutrophil counts versus concurrent controls: 60 mg/kg/dose QOD. The source says:
Additional animals were included for TK evaluation.

For data set [12], the system named is LU2527 lung NEC patient-derived xenograft. It counts as in vivo. The conditions noted are these: 1.5 and 5 mg/kg orally QD.
The nature of data set [13]: Metabolism in cryopreserved primary hepatocytes. Type of data set: in vitro ADME, mouse, rat, dog, monkey, human.
Data set [14] has as its target MDR1 (human P-gp)-MDCK cells (Homo sapiens (Human), UniProt P08183). The data set can be described thus: Permeability in MDR1-MDCK cells. Type of data set: in vitro ADME. The conditions noted are these: B→A direction.
Data set [15] relates to LNCaP cells. The data set can be described thus: LNCaP cell proliferation with DHT and irradiation. Type of data set: cell-based, human. The conditions noted are these: 100 nM Compound A with 10 nM DHT and 2Gy irradiation, 220 hours. The protocol:
LNCaP cells are androgen-sensitive human prostate adenocarcinoma cells. […] The proliferation of the LNCap cells was monitored for 220 hours.

The test system of data set [16] is ST18 and FREM2 gene expression in MKL-1 tumors. The data set can be described thus: In vivo xenograft dose-response of PD biomarker genes, MKL-1 tumors. More on the design: species or system female NSG mice. The conditions noted are these: 1, 2.5, or 5 mg/kg PO BID x4.5, tumors 4 hours after last dose.
Description: as §1, §2

Data set [17] has as its target CYP2D6 (Homo sapiens (Human), UniProt P10635). The data set can be described thus: CYP inhibition in pooled human liver microsomes, CYP2D6. It counts as in vitro ADME. The conditions noted are these: up to 50 μM.
Data set [18] deals with gene expression in MKL-1 cells. The data set can be described thus: Modulation of gene expression by RNA-seq, MKL-1 cells. It counts as cell-based, human. The conditions noted are these: 10 and 100 nM, 3 days. The protocol:
(§3) Libraries were sequenced on an Illumina NextSeq® 500 System (Illumina, San Diego, Calif.) using 75 base paired-end RNA sequencing. Sequenced reads were mapped to the hg19 human genome build and differential expression was determined by analysis of variance across all replicates relative to the vehicle control.
(§4) Sequenced reads were mapped to the hg19 human genome build using the Spliced Transcripts Alignment to a Reference (STAR) software tool (©Alexander Dobin, 2009-2016) and transcript counts were normalized using the Empirical Analysis of Digital Gene Expression Data in R (edgeR) and Differential gene expression analysis based on the negative binomial distribution (DESeq2) software tools ((Bioconductor, 2003-2017). Differential expression was determined by analysis of variance across all replicates relative to the vehicle control.

The test system of data set [19] is LXFS 573 SCLC patient-derived xenograft. The conditions noted are these: for SS (number of study survivors): Day 133, N=8.
A short description of data set [20]: 4-week oral gavage pivotal toxicity study with 4-week recovery in dogs (incl. ECG, toxicokinetics). It counts as in vivo, Beagle dogs. The protocol:
The QTc interval was calculated using the Fridericia method.

Data set [21] has as its system LXFS 573 SCLC patient derived xenograft. The data set can be described thus: Efficacy in LXFS 573 SCLC PDX model. It counts as in vivo, female NMRI-Foxn1nu mice. The conditions noted are these: 5 to 10 mg/kg oral.
Data set [22] relates to gene expression in MS-1 cells. The data set can be described thus: Modulation of gene expression by RNA-seq, MS-1 cells. It counts as cell-based, human. The conditions noted are these: 10 and 100 nM, 3 days. The protocol:
as §3, §4

Data set [23] concerns GA0087 gastric NEC patient-derived xenograft. It counts as in vivo. The conditions noted are these: 1.5 and 5 mg/kg orally QD.
Data set [24] in a line: 4-week toxicity study with 4-week recovery in mice (incl. toxicokinetics). The conditions noted are these: QDx5/week schedule.
Data set [25] is described as follows: Exploratory toxicity study in dogs. The conditions noted are these: 0.5 mg/kg/day 5 days on/2 days off, Day 12.
The test system of data set [26] is NCI-H1417 SCLC xenograft. The conditions noted are these: etoposide monotherapy 24 mg/kg SC QDx3.

Read-outs that look alike come from different tables or passages of the source.

Sequence of MDR1 (human P-gp)-MDCK cells (P08183 whole entry): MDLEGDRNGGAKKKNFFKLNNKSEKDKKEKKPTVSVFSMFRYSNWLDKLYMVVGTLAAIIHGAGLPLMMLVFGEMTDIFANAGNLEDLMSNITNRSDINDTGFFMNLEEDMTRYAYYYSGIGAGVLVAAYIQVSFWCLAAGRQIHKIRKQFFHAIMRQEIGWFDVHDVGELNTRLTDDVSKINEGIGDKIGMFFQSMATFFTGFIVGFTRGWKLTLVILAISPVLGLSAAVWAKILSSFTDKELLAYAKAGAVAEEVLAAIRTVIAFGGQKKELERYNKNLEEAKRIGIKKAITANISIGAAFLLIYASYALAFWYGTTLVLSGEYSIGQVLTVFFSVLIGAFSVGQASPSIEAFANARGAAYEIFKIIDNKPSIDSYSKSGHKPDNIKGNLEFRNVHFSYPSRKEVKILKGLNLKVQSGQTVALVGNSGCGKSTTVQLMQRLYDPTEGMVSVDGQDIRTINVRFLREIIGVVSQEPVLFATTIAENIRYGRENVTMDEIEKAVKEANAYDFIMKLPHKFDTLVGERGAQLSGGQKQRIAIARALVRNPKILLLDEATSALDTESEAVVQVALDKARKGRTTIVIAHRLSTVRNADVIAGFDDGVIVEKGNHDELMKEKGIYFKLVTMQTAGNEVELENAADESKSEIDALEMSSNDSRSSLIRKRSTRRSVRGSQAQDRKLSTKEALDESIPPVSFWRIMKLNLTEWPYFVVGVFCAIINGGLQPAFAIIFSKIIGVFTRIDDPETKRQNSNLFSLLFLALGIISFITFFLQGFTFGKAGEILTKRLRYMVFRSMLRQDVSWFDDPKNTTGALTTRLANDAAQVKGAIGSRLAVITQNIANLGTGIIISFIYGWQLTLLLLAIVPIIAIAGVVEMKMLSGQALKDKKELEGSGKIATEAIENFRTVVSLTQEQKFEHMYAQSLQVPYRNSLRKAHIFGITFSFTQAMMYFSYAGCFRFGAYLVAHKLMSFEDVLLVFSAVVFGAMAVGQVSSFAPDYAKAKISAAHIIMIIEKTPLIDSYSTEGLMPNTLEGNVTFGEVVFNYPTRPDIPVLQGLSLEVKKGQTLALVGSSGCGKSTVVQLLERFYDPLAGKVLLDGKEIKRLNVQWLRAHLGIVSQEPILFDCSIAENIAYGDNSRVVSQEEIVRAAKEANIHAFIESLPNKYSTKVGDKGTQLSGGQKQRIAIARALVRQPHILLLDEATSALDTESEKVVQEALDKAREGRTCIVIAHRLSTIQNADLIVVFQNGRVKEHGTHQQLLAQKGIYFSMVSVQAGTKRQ
Sequence of CYP2D6 (P10635 whole entry): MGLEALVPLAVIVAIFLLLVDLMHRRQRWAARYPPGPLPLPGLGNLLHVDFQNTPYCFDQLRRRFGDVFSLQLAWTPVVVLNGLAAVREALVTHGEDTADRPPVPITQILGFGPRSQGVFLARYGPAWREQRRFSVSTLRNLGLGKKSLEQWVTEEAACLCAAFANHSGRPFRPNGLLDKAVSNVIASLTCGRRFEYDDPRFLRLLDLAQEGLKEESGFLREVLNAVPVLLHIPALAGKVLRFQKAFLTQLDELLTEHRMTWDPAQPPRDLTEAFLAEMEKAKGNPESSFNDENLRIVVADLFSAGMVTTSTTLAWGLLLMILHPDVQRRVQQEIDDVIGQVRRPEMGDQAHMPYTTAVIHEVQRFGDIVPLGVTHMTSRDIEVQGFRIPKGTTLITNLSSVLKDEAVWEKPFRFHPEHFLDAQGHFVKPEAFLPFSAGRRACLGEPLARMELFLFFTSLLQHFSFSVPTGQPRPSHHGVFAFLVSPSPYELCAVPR
Sequence of CYP2C9 (P11712 whole entry): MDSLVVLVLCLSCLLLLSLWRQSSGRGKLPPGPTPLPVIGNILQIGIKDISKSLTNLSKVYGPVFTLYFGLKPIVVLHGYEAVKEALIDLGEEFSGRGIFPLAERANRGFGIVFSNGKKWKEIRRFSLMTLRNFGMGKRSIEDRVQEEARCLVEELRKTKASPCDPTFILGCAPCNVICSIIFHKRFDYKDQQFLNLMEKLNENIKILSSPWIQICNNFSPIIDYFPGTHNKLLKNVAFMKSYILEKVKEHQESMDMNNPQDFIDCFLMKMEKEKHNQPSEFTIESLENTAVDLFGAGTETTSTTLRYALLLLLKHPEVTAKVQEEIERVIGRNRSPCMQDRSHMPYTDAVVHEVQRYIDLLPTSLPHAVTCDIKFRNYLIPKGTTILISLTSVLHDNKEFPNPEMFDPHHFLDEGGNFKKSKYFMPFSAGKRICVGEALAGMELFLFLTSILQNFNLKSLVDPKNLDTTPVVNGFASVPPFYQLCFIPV

Consider `COc1ccc(-c2c(-c3ccc(C#N)c(F)c3)nc(N3CCC(N)CC3)n(C)c2=O)cc1F` [Compound A, 4-[2-(4-amino-piperidin-1-yl)-5-(3-fluoro-4-methoxy-phenyl)-1-methyl-6-oxo-1,6-dihydro-pyrimidin-4-yl]-2-fluoro-benzonitrile], for which the “maximum increase of QTcB interval versus time-matched vehicle” value in [1] (10 mg base/kg IV) was “approximately 9%”; in [1] (15 mg base/kg IV) it was approximately 13%; in [1] (20 mg base/kg IV), approximately 16%. Further, the “maximum suppression of HR versus vehicle” value in data set [1] (20 mg base/kg IV, 9 minutes into 10-minute infusion) was found to be 19%. For the same compound, the “effect on MAP or its components” value in [1] (5 to 20 mg base/kg IV versus time-matched vehicle) is given as “No notable effect”. Moreover, in data set [2], the predicted clearance is 9.4 mL/min/kg. Also, the systemic clearance result in data set [3] is “high”. The “dose excreted intact (urine plus bile)” value in data set [4] was 26.3 % of the dose. In data set [4], the “dose excreted intact in urine” value is listed as 8.5 % of dose. Moreover, the “Median Tumor Volumes (mm^3) Day 1” value in [5] (5 mg base/kg PO QDx21) amounted to 89.5 mm^3; in [5] (10 mg base/kg PO QDx21) it was 87.1 mm^3; in [8] (5 mg base/kg PO QDx28) it was 173.2 mm^3; in data set [8] (10 mg base/kg PO QDx28), 173.7 mm^3. Besides, the “change in ST18 and FREM2 gene expression” value in data set [6] and in data set [16] was not below 2 fold in each case. In addition, the “enzyme responsible for oxidative metabolism” value in data set [7] is on record as “CYP3A4 appears to be predominantly responsible”. Further, the figures for the “mean body weight losses” value in [8] (both studies with LU2514 model) and in data set [21] were less than 10% and not above 3%, respectively. Besides, the “direct inhibitory effect on CYP2C9” value in data set [9] is listed as “little to no direct inhibitory effect”. For the same compound, the “Median Tumor Volumes (mm^3) Day 0” value in [10] (2.5 mg base/kg PO QDx65) worked out at 109.2 mm^3; in data set [10] (5 mg base/kg PO QDx65) it was 108.2 mm^3. Besides, the figures for the “mean body weight gain by end of study” value in data set [10] (2.5 mg base/kg PO QDx65) and in data set [10] (5 mg base/kg PO QDx65) were 1% and 7.5%, respectively. The “increase in platelets on Day 8” value in data set [11] (10 mg/kg/day 5 days on/2 days off, after 2-day dosing holiday) is more than 2 fold. In addition, the results for the “reduction in neutrophil counts versus concurrent controls” value in data set [11] (females) and in data set [11] (males) were 66% and 83%, respectively. Besides, in data set [11] (5 days on/2 days off schedule), the “greatest reduction in neutrophil counts versus concurrent controls and pre-study values” was “approximately 90%”. Moreover, the tolerability result in data set [12] and in data set [23] was “acceptably tolerated” throughout. In addition, in data set [13], the metabolic stability entry was “greater in rat and dog followed by human and monkeys while being least stable in mouse hepatocytes”. The compound also registered a permeability in [14] of 16.5 ×10⁻⁶ cm/s. For the same compound, the LNCaP cell proliferation result in data set [15] is reported as “significantly inhibits LNCaP cell proliferation”. Moreover, the “direct inhibitory effect on CYP2D6” value in data set [17] is given as “little to no direct inhibitory effect”. Besides, the “ST18 and FREM2 gene expression changes (upregulated)” value in data set [18] and in data set [22] was “at least 2 fold” throughout. Further, the “SS (number of study survivors)” value in [19] (Compound A at 5 mg/kg/day PO) is listed as 7. Besides, in data set [19] (Compound A monotherapy 5 mg/kg PO daily), the “MTV of study survivors on Day 133” value is recorded as 1064 mm3. The “study survivors on Day 133” value in [19] (Compound A monotherapy 5 mg/kg PO daily, n=8) is “seven”. Besides, the “animals with moribund euthanasia” value in data set [20] (0.375 to 1.5 mg base/kg/dose QW, study Days 13 to 23) was found to be 11 animals. In [20] (QW), the “NOEL for CV and respiratory changes” value stood at 0.75 mg base/kg/dose. The compound also had an NOAEL in [24] of 5 mg base/kg/dose. The STD10 in data set [24] was more than 45 mg base/kg/dose. In addition, in [25], the “body weight loss of female sacrificed moribund” value is given as 10.8%.
Take `COc1cc([C@@H]2c3cc4c(cc3[C@@H](O[C@@H]3O[C@@H]5CO[C@@H](C)O[C@H]5[C@H](O)[C@H]3O)[C@H]3COC(=O)[C@H]23)OCO4)cc(OC)c1O` [Etoposide, etoposide]: in data set [26], the “% TGD” value amounted to 92%, the TGD came to 24 days and the “median TTE” value is on record as 50 days. Also, the “median TTE” value in data set [19] (Etoposide at 24 mg/kg/day SC days 1-3 + Vehicle PO days 4-133) stood at 63 days. In addition, the “SS (number of study survivors)” value in data set [19] (Etoposide at 24 mg/kg/day SC days 1-3 + Vehicle) is 0.

As a reminder, the NOAEL is the highest tested level that showed no adverse finding.
